The test system of one data set is HT-29 clone 34 cells. The experiment in a line: HT-29 clone 34 cell viability (ATP, Cell Titer-Glo). The format is cell-based, human. The conditions noted are these: HT-29 clone 34 cells (FIG. 5). As for the experimental part:
10000 cells/well were seeded in 200 μl of culture medium in flat bottom white border 96 well plates (Greiner Bio One, Kremsmuenster, Austria). […] 20 μl of experimental medium containing (or not) LPS 055:B5 or rhTNF-α (100 and 10 ng/ml final, respectively) was added and the plates were incubated for 24 hours at 37° C. in a 5% CO2/air incubator.
Cell viability was determined by measuring ATP using Cell Titer-Glo kit (Promega). Briefly, remaining adherent HT-29 clone 34 cells were incubated for 10 min at room temperature under horizontal shaking (250 rpm) with 120 μl of Cell Titer-Glo reagent (pre-diluted twice in 1×PBS) and the luminescence was measured using Polarstar microplate reader (BMG, Offenburg, Germany) for 1000 ms with a gain value set to 3500.

The next data set relates to NF-κB. Nature of the data set: NF-κB activity (SEAP and IL-8 production) in HT-29 clone 34 cells. The format is cell-based, human. As for the experimental part: Two in-vitro systems were used: human colonic cells (HT-29 clone 34) and human monocytes/macrophages (THP-1 blue cells). The human colonic adenocarcinoma HT-29 clone 34 cell line (passage 42-50) are adherent cells stably transfected with a NF-κB/SEAP reporter plasmid. They were cultured in DMEM high glucose (4.5 g/L) (Invitrogen) containing 1% of stable L-glutamine and supplemented with 10% of heat inactivated (one hour at 56° C.) Foetal Calf Serum (FCS) (Bioconcept, Allschwil, Switzerland), 1% of Penicillin/Streptomycin (Sigma) and 500 μg/ml of Geneticin (PAA, Pasching, Austria) at 37° C. in a 5% CO2/air incubator. Culture medium was renewed every two days until the cell monolayer reached ˜90% confluence. Cells were sub-cultured using 1× Trypsin/EDTA (Sigma). 10000 cells/well were seeded in 200 μl of culture medium in flat bottom white border 96 well plates (Greiner Bio One, Kremsmuenster, Austria). […] Cell culture supernatants were then collected for measurement of NF-κB activity (determination of secreted alkaline phosphatase and IL-8 production) using Phosphalight (Applied Biosystems) and IL-8 singleplex (Meso Scale, Gaithersburg, Md.) kits, respectively.

A further data set concerns THP-1 blue cells. Nature of the data set: THP-1 blue cell viability (Cell Titer-Glo). Type of data set: cell-based, human. The conditions noted are these: THP-1 blue cells (FIG. 6). As for the experimental part:
200000 cells/well were seeded in 100 μl of culture medium in 96 well flat bottom transparent plates. […] 20 μl of culture media containing (or not) LPS 055:B5 (Sigma) (100 ng/ml final) was added and the plates were incubated for 16 hours at 37° C. in a 5% CO2/air incubator.
Cell culture supernatants were carefully transferred to 96 well-plates for NF-κB activity measurement which is proportional to the level of secreted alkaline phosphatase. Briefly, 100 μl of supernatants were mixed with 150 μl of QuantiBlue (Invivogen) in a 96 well-plates incubated for 3 h at 37° C. before OD measurements at 620 nm with Sunrise microplate reader (Tecan, Mannedorf, Switzerland). Cell viability was determined using Cell Titer-Glo kit as described above.
On the technique in general: ATP-based viability assays read luminescence as a measure of living cells.

For the next data set, the system named is AREc32 cells. The experiment in a line: AREc32 cell viability (ATP quantification, Cell Titer-Glo). The format is cell-based. The conditions noted are these: 24 h. As for the experimental part: To determine the Nrf2 activation the samples were tested on AREc32 cells (seeded in 96 well plates) using 10 independent dilutions (1/2, 1/4, 1/6, 1/10, 1/15, 1/20, 1/25, 1/30, 1/40 and 1/50) and incubated for 24 hours at 37° C. in a 5% CO2/air incubator. The luciferase activity and the cell viability (ATP measurements) were determined using the Luciferase and Cell Titer-Glo kits from Promega.
The cell viability was also measured using a cell Titer-Glo kit (ATP quantification).

The test system of a further data set is Nrf2. The experiment in a line: Nrf2 reporter assay (AREc32 cells, ARE-luciferase). Particulars: 24 h, dose range 0 to 200 μM (FIG. 3). The format is cell-based. As for the experimental part: Activation of Nrf2 was measured using an Nrf2 reporter assay. This assay is based on the AREc32 cell line, from CRX biosciences (Dundee, Scotland), a stably transfected MCF7 (breast adenocarcinoma) cell line that contains a luciferase gene construct under the control of the ARE. Luciferase is an enzyme which digests luciferin and produces […]. Anti-oxidative molecules such as Tert-butylhydroquinone (TBHQ) induce luciferase transcription via the activation of Nrf2 that binds to ARE. Luciferase activity is determined using a luciferase kit form Promega (Madison, Wis.). The luciferase activity is proportional to the activation of Nrf2. […] The luciferase activity and the cell viability (ATP measurements) were determined using the Luciferase and Cell Titer-Glo kits from Promega. For each run the luciferase activities, measured in Relative Light Units (RLU), of all the wells were normalized with the mean of the luciferase activity of the cells only of all the plates. Among all the samples tested the normalization procedure was found not to affect the data and this observation permits the comparison of samples measured in different runs. For each sample the Nrf2 activation was calculated as follows: […] […] The luciferase content per sample allows a semi quantification of the Nrf2 activation by reflecting the amount of the Nrf2 activating molecule. […]

The source of these data is patent US9238015B2 (NESTEC S.A., priority 2012, dated 2016).

As to `CC(=O)/C=C/C(=O)O` [4-oxo-2-pentenoic acid], the “doses showing a decrease in cell viability” value in the data set on HT-29 clone 34 cells is more than 50 µM. Besides, the “inhibition of NF-κB activity” value in the data set with NF-κB (HT-29 clone 34 cells stimulated with LPS (FIG. 5)) is “inhibits NF-κB activity in a dose dependent manner”. Besides, the “NF-κB activity (SEAP or IL-8 detection) in the absence of LPS” value with NF-κB (HT-29 clone 34 cells, no LPS, doses tested 3 to 400 μM) is listed as “no NF-κB activity was observed”. For the same compound, the “doses toxic to cells” value in the data set on THP-1 blue cells was “higher than 75 μM”. The “doses at which viability of AREc32 cells was not affected” value in the data set with AREc32 cells is “lower than 70 μM”. For the same compound, in the data set on Nrf2, the Nrf2 activation result is “strongly activate Nrf2 in a dose dependent manner”.
